Series [1] in a line: Human PK model for AMG 510 fitted to digitized published clinical PK data. The note with it: AMG 510 (human). It is filed as in vivo.
The subject of series [2] is NSCLC tumors. The conditions noted are these: cited from earlier work.
Series [3] concerns NSCLC tumors. The note with it: cited from earlier work. This is another data set of the same source.
Where [4] appears, read: patients with NSCLC, single agent.

Like-named read-outs stand apart in the source and are kept apart here.

For the molecule `C=CC(=O)N1CCN(c2nc(=O)n(-c3c(C)ccnc3C(C)C)c3nc(-c4c(O)cccc4F)c(F)cc23)[C@@H](C)C1` [AMG 510, Sotorasib], in series [1], the ke amounted to 2.98 day⁻¹. In series [1] (assume 70 kg human), this molecule gave a V1 of 110 L and a Vp of 4.40 L. In addition, the ka in series [1] (single dose 960 mg) amounted to 58.1 day⁻¹. Further, in series [2] (AMG 510 at 960 mg, patients with NSCLC), the ORR reported is reported as 50%. The “overall response rate (ORR)” value in series [2] (setting [4]) is listed as ~ 50%. For the same molecule, the dose-limiting toxicities entry in series [2] (patients, phase I) is reported as “no dose‐limiting toxicities”. Further, in series [2] (six weeks AMG 510), the “Fz (data), frequency in tumor size bin 0–0.3” value is on record as 0.091; the “Fz (data), frequency in tumor size bin 0.3–0.5” value is listed as 0.136; the “Fz (data), frequency in tumor size bin 0.5–0.7” value is recorded as 0.272; the “Fz (data), frequency in tumor size bin 0.7–1” value is 0.272. Besides, in series [2] (six weeks AMG 510), the “Fz (data), frequency in tumor size bin 1–1.2” value is on record as 0.227; the “N (data), number of patients in tumor size bin 0–0.3” value was 2; the “N (data), number of patients in tumor size bin 0.3–0.5” value is given as 3; the “N (data), number of patients in tumor size bin 0.5–0.7” value was 6. For the same molecule, in series [2] (six weeks AMG 510), the “N (data), number of patients in tumor size bin 0.7–1” value is recorded as 6 and the “N (data), number of patients in tumor size bin 1–1.2” value is given as 5.
As for `C=C(F)C(=O)N1CCN(c2nc(OC[C@@H]3CCCN3C)nc3c2CCN(c2cccc4cccc(Cl)c24)C3)C[C@@H]1CC#N` [MRTX849, Adagrasib], the “overall response rate (ORR)” value in series [3] (setting [4]) is ~ 50%. The dose-limiting toxicities entry in series [3] (patients, phase I) is on record as “no dose‐limiting toxicities”.

The record behind these values is paper PMC8376128 (CPT: Pharmacometrics & Systems Pharmacology, 2021).
